Legend:
yeast α-glucosidase = assay: Inhibitory activity against α-glucosidase; assay type: biochemical; conditions: yeast enzyme, PNP-G substrate, pH 7.0, 37° C.; read-out: IC50 (concentration necessary for inhibiting the activity of α-glucosidase by 50%)
Description: Inhibitory activity against α-glucosidase was evaluated using a yeast enzyme according to the method of Watanabe et al. (Watanabe, Kawabata, Kurihara, & Niki, 1997). In the reaction condition of pH 7.0 and 37° C., 5 mM p-nitrophenyl α-D-glucopyranoside (PNP-G) serving as a substrate was reacted with a dilution of 32 mU/ml enzyme (yeast α-glucosidase, Sigma) in 100 mM phosphate buffer and inhibitory activity was measured using spectrophotometry. The sample was reacted with PNP-G for 5 min and the absorbance of 4-nitrophenol released upon the hydrolysis of PNP-G was read at 405 nm. Subsequently, the same amount of the substrate solution was added and reacted at room temperature for an additional five min., after which the reaction was stopped by adding 0.5 M Na2CO3. A change in absorbance at 405 nm was measured.
Inhibitory activity (%) against α-glucosidase was calculated according to the formula (1-absorbance of sample-added group/absorbance of solvent-added group)×100).
Acabose, which is an oral hypoglycemic agent inhibitory of α-glucosidase, was used as a positive control.

[1] = test system: differentiated myoblast C2C12 cells; assay: Glucose uptake of C2C12 cells, 2-NBDG flow cytometry (FACS); assay type: cell-based, mouse; conditions: treated with HdP for 24 hours, 2-NBDG fluorescence, dose-dependent
Description: The mouse-derived myoblast C2C12 cells (ATCC, Manassas, Va., USA) were suspended in DMEM (Dulbecco's Modified Eagle's Media) medium supplemented with 10% FBS and an antibiotic and cultured at 37° C. under a 5% CO2 atmosphere in an incubator. Upon 80% confluency, the C2C12 cells subjected to differentiation in a DMEM medium containing 2% horse serum and a low concentration of glucose for 5 days, with the medium freshly changed every three days. The differentiated cells were serum starved for 12 hours in serum free DMEM containing a low concentration of glucose, washed with PBS, and then reacted for 24 hours with the sample (HdP) in a fresh serum free DMEM.
Glucose uptake of mouse-derived myoblast C2C12 cells was measured using flow cytometry (FACS) according to the (2-(N-(7-nitrobenz-2oxa-1,3-diazol-4-yl)amino)-2-deoxyglucose (2-NBDG) assay method (Cell Death Dis. 2017 Oct. 5. 8 (10):e3078). The cultured cells were incubated with 10 μM 2-NBDG at 37° C. for 24 hours and then analyzed using BD FACS Cantoll (BD Biosciences, NJ, USA), with the fluorescence of 2-NBDG detected in a FITC channel.

zebrafish embryos [2] = assay: Intracellular calcium level in zebrafish embryo using Fluo-4; assay type: in vivo
Description: Intracellular calcium levels of zebrafish embryos were measured using a calcium-sensitive Fluo-4 probe. Embryos were incubated with Fluo-4 at 28.5±1° C. for 30 min before treatment with HdP (0.6, 3, and 6 μg/ml). In order to block the entry of calcium into cells, the embryos were reacted with the calcium chelator BAPTA-AM 0.1 mM for 1 hour before incubation with Fluo-4. The experiment groups included a non-treated group (N), a group treated with Fluo-4 alone (F), a group treated with HdP alone (0.6, 3, and 6 μg/ml), a group treated with Fluo-4 and HdP (0.6, 3, and 6 μg/ml), and a group treated with Fluo-4, BAPTA-AM, and HdP (6 μg/ml).

zebrafish embryos [3] = assay: HdP toxicity in zebrafish embryo; assay type: in vivo; conditions: 1 μg/ml or less HdP, exposed until 168 hours after fertilization
Description: Four days after fertilization, each of the embryos (n=15) was transferred to 12-well plates, each containing 950 μl of an embryo medium (distilled water containing 60 ppm salt) and 50 μl of HdP (0.01, 0.1, 1, and 10 μg/ml) and the viability of zebrafish embryos exposed to HdP for 168 hours after fertilization were measured.

[4] = test system: alloxan-treated adult zebrafish; assay: Blood glucose level in alloxan-treated adult zebrafish; assay type: in vivo
Description: Wild-type adult zebrafish were treated for 1 hour with 2 mg/ml alloxan and then for 1 hour with 1% glucose in the absence of insulin. Subsequently, the reaction solution was exchanged with water in which the zebrafish were then left for 1 hour before treatment with HdP, metformin, or BAPTA-AM for 90 min. Thus, the experiment groups included a non-treated group, an alloxan-treated group (control), a group treated with alloxan and HdP (0.3 μg/g body weight), a group treated with alloxan and metformin (5 μg/g body weight), a group treated with alloxan and BAPTA-AM (3 μg/g body weight), and a group treated with alloxan, BAPTA-AM (3 μg/g body weight), and HdP (0.3 μg/g body weight).

| SMILES | IC50 (yeast α-glucosidase) | glucose uptake into differentiated C2C12 cells [1] | intracellular Ca2+ level (Fluo-4 phosphorescence) with calcium chelator BAPTA-AM (zebrafish embryos [2]; Fluo-4, BAPTA-AM 0.1 mM and HdP 6 μg/ml) | intracellular Ca2+ level (Fluo-4 phosphorescence) (zebrafish embryos [2]; HdP 0.6, 3 and 6 μg/ml with Fluo-4, versus group treated with Fluo-4 alone) | survival rate of zebrafish embryos (zebrafish embryos [3]) | blood glucose level ([4]; HdP 0.3 μg/g body weight, 90 min) | blood glucose level, HdP plus BAPTA-AM versus alloxan plus BAPTA-AM ([4]; HdP 0.3 μg/g with BAPTA-AM 3 μg/g body weight) | blood glucose level (effect compared with HdP) ([4]; metformin 5 μg/g body weight, 90 min) |
| --- | --- | --- | --- | --- | --- | --- | --- | --- |
| Oc1cc(O)cc(Oc2cc(O)c(Oc3c(O)cc(O)cc3Oc3cc(O)c(Oc4cc(O)cc(O)c4Oc4cc(O)cc(O)c4Oc4cc(O)cc(O)c4Oc4cc(O)c(Oc5c(O)cc(O)cc5Oc5c(O)cc(Oc6c(O)cc(Oc7c(O)cc(Oc8c(O)cc(Oc9c(O)cc(Oc%10c(O)cc(Oc%11c(O)cc(O)cc%11O)cc%10O)cc9O)cc8O)cc7O)cc6O)cc5O)c(O)c4)c(O)c3)c(O)c2)c1 [HdP, hexadecaphlorethol] | 55 µM | significantly increase | phosphorescence decrease | significant increase | ≥ 90% | significantly reduced | No significant differences | – |
| CN(C)C(=N)N=C(N)N [metformin, reference compound] | – | – | – | – | – | – | – | similar |
